Data as given in patent US20240368664A1, “LIVE YEAST BIOSENSORS AND METHODS OF USE THEREOF” (priority 2021, published 2024).
Where two headings read alike, the source gives them in different places. Residues, ends and D or L forms follow the SMILES beside them. No end group written: not given here.

Tests used:
[1] = system: fungal cognate receptors; format: cell-based
[2] = system: AfuSte2; format: cell-based, A. fumigatus
[3] = system: AfuSte2 (first member), ScSte2 (second member); format: cell-based, A. fumigatus
[4] = system: AfuSte2; format: cell-based, A. fumigatus; remark: listed apart in the source
[5] = system: AfuSte2; format: cell-based, Aspergillus fumigatus; conditions: nasal swab solution; 30° C. and room temperature
Experimental: (left) and room temperature (right).
To determine whether the yeast biosensor can detect the targeted pathogen analyte in the presence of the nasal swab solution. The yeast biosensor's ability to detect its cognate fungal biomarker in the presence of the nasal swab solution was tested. […] This experiment involved a biosensor containing an Ste2 homolog from Aspergillus fumigatus (AfuSte2) that produces lycopene in response to its cognate pheromone peptide (AfuPep). […] Experiments were carried out at yeast standard growth conditions, which include at 30° C.; experiments also needed to be conducted at at-home-like temperatures to ensure that the biosensor is viable and active in these settings. When incubated at room temperature, the yeast still produced an observable difference in lycopene compared to the water negative control (FIG. 24).

[6] = system: AfuSte2
[7] = system: CaSte2; conditions: CaSte2 (yTC384), no protease; Hill function best-fit ± standard error
[8] = system: CaSte2 with protease CaBar1
[9] = system: CaSte2 with protease CaBar1; conditions: read-out: "EC50" of the first response phase; biphasic dose-response, phase treated as separate Hill fit
[10] = system: CaSte2; assay: CaSte2 biosensor with lycopene readout, without CaBar1 (yTC646); conditions: -CaBar1 strain; 50-300 nM peptide; 1-h preincubation, 7-h incubation
[11] = target: T1, Schizosaccharomyces pombe pheromone GPCR SpSte2 (Schizosaccharomyces pombe) (UniProt Q00619); assay: cell-based or functional assay
T1 sequence: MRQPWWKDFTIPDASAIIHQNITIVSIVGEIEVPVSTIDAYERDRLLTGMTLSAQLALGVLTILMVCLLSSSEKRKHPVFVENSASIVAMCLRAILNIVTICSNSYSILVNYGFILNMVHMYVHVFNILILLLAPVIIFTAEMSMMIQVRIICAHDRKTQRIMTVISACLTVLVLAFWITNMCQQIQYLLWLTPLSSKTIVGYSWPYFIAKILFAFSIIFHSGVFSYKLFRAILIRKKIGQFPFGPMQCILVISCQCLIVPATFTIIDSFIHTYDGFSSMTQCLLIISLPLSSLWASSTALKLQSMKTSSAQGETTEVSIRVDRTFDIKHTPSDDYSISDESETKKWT

[12] = system: SjSte2 with peptide proteases; format: cell-based, Schizosaccharomyces japonicus; conditions: read-out: apparent EC50
[13] = target: T2, S. cerevisiae GPCR (Saccharomyces cerevisiae, UniProt D6VTK4); assay: Aspergillus spp peptide/GPCR orthogonality matrix, S. cerevisiae GPCR; format: cell-based; conditions: 40 μM peptide
T2 sequence (D6VTK4 whole entry, looked up): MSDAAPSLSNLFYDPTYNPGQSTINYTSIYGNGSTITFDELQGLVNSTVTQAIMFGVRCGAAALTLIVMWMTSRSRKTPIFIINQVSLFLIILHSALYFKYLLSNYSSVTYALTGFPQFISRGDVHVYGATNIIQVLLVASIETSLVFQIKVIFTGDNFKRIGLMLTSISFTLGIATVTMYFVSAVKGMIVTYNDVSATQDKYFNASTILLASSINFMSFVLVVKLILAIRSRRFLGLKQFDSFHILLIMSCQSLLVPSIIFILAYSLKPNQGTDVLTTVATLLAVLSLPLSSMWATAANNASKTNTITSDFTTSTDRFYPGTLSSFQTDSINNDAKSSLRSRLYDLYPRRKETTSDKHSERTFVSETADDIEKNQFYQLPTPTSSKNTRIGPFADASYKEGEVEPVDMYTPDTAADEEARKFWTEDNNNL
Experimental: FIGS. 6A-6B show Aspergillus spp peptide cross-reactivity with Aspergillus spp GPCRs. […] The test concentration was set at 40 μM of a given peptide ligand.
Next, 13 GPCRs of all genome-mined Aspergillus species, including A. fumigatus from Example 1 and S. cerevisiae, along with inducible fluorescent readout were integrated into optimized parent strain. S. cerevisiae was included to test cross-reactivity with S. cerevisiae GPCR and peptide, since this peptide/GPCR pair will be used for building multi-cellular amplification communities. Then, each strain was activated with all Aspergillus peptides and S. cerevisiae peptide (FIG. 6A). Most of the Aspergillus GPCRs were responsive to at least one peptide, except A. terreus, A. flavus/A. oryzae (same GPCR sequence), A. niger and A. nidulans which were not responsive to any tested peptide. […] The majority of peptides have the same sequence (A. fischeri, A. fumigatus, A. lentulus, A. novofumigatus, A. udagawae and A. viridinutans) and the other active peptides differ only in the third amino acid position from N-terminus (A. clavatus, A. flavus and A. oryzae).

[14] = target: S. octosporus pheromone peptide (SoPep) (Schizosaccharomyces octosporus); assay: cell-based or functional assay
[15] = fine-tuned optimized strain (yTC453/pDR01)
[16] = natural signaling pathway (yMJ194/pDR01)

Molecule: CC(C)C[C@H](NC(=O)[C@H](Cc1c[nH]cn1)NC(=O)[C@H](CS)NC(=O)[C@@H](N)Cc1c[nH]c2ccccc12)C(=O)N1CCC[C@H]1C(=O)NCC(=O)N[C@@H](CCC(N)=O)C(=O)NCC(=O)N[C@@H](CS)C(=O)O [AfuPep] (H-WCHLPGQGC-OH; N-terminus and C-terminus assumed)
- activation of fungal cognate receptors by AfuPep [1]: nor did AfuPep activate fungal cognate receptors
- fluorescence intensity relative to background fluorescence [2]: two-fold
- fold lower AfuPep concentration at which receiver strain responds vs sender strain [3]: 8 fold
- LoD / color detection limit in liquid culture [4]: 50 nM
- limit of detection (LoD) in liquid culture [4]: ~30 nM
- time to faint visible color in culture pellets [4]: one hour
- time to obvious color change in liquid culture [4]: two hours
- lycopene production in the presence of human biospecimens [5]: produces lycopene only when AfuPep is present
- fold change of fluorescence readout compared to background ([6]; AfuSte2 on plasmid, inducible mCherry in optimized strain, FIG. 1B): around 4,000 fold
- EC50 [6, 15]: ~40 nM
- activation fold change [6, 15]: 2,900 fold
- basal expression [6, 15]: practically zero
- maximal activation [6, 15]: ~2,900 A.U.
- EC50 [6, 16]: ~10 nM
- activation fold change [6, 16]: 19 fold
- maximal activation [6, 16]: ~450 A.U.
- basal expression ([6]; older strain with natural signaling pathway (yMJ194/pDR01)): ~20 A.U.
- EC50 ([6]; read-out: EC50 value (concentration of peptide required for half-maximal activation), AfuSte2 on plasmid, inducible mCherry in optimized strain, FIG. 1B): ~100 nM

Molecule: GARLTNFGYFEPG [CaPep2A]
- Hill Slope [7]: 1.4 ± 0.3
- Hill Slope ([8]; CaSte2 + CaBar1 (yBB02), Hill function best-fit ± standard error): 1.6 ± 0.3
- EC50 ([8]; biosensor with protease CaBar1 under intermediate pRPL18B promoter, 10-h incubation): ~40 nM
- cleavage by CaBar1 protease ([8]; judged from CaSte2 activation with/without CaBar1): does not cleave
- EC50 [9]: ~1 nM
- color development in yeast pellets [10]: robust orange color development

Molecule: S. pombe pheromone peptide (SpPep)
- apparent EC50, ymTurquoise2, strain co-expressing SpSxa2 [11]: 100000 nM

Molecule: VSDRVKQMLSHWWNERNPDTANL [SjPep]
- EC50 [12]: > 100000 nM

Molecule: WCWLPGQGC [A. terreus peptide, A. terreus pheromone peptide]
- cross-reaction with S. cerevisiae GPCR [13]: cross-reacted

B1: Schizosaccharomyces octosporus serine carboxypeptidase Sxa2 (SoSxa2) (enzyme)
chain: MNLAVHVLLLSFLLYTVHSFPAYPPYPIYPRSSLNSSNASSVPIPQPSYNSSSKAMNPDLVTSLPEYSGSLPELYSGYLSAENFKQIFYTFAPAITPTDKFIVWLQGGPGCAGTLGFFSENGPIILDPNHQTPQDNPNSWTRFANMMWIDQPFGTGYSQGSPLASTVSIATSDFIQTLKSFYAKFPEMKEKELYLVGESYGSVWGAYFAQALRSDPELHAIPFGGLGIISGLLSDYETQNTITASMWLDHVNKMGLYYTNESAEVSTFFAAKNQQCGYAEVLERMQFPAEQTPIPKPRVNLTNSFSKKKRQADSDSDSGNIKEAFQMITDCDTYTLTDFLLYLKNHCMITYDITLDCSFNSNNDPLTTYLNRKDVQKQLHAIHVESALTSSKGIFGNGCNYDVYGDIVKNGAPSILEEAIPELVQNYKVSFLAGALDFQLLWTGSLLALQNTTWNGWQGFQEIPDLNSPFGFTLDERNLAFTLSNKVGHMAPSKDPSMVIDWLQKTLLG
- shift of apparent EC50 on the cognate GPCR with the protease co-expressed (orders of magnitude) [14]: 1.5
